From BindingDB's records for PubMed 30795990 (n/a, 2019)

Target: Cyclin-dependent kinase 11B (Homo sapiens) (UniProt P21127)
Experiment: Inhibition of GST-tagged human recombinant CDK11 (1 to 795 residues) expressed in baculovirus expression system

Sequence of Cyclin-dependent kinase 11B (Homo sapiens) (P21127 whole entry, looked up, the tested form may be a part): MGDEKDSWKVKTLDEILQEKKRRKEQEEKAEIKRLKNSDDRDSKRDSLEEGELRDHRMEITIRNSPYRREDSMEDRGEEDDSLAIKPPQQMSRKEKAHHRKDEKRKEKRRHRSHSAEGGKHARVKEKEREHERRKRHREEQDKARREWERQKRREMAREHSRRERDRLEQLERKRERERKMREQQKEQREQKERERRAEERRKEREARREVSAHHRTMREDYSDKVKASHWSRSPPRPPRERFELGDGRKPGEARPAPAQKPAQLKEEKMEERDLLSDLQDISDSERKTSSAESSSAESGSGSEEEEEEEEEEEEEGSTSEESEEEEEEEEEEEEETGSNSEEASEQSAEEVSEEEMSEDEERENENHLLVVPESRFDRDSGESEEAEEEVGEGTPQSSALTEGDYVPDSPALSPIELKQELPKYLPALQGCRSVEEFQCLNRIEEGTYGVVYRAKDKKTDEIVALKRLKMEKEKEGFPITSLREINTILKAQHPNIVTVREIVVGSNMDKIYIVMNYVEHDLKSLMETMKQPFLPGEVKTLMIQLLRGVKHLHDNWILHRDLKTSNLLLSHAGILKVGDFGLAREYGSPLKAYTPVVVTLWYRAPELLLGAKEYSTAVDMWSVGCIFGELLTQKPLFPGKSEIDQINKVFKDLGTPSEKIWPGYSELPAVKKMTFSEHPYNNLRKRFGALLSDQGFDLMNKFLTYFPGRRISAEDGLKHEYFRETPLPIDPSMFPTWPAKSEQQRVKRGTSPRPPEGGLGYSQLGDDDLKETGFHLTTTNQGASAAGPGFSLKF

- IC50: > 1000 nM
Compound: O=C(c1ccc2c(c1)OCCO2)C1CCN(c2ncnc3sccc23)CC1
